Among the data in patent publication US12441730B2, “PRMT5 inhibitors” (Merck Sharp & Dohme LLC, priority 2019, dated 2025) are EC50 values, retold here.

In experiment [1] the target is T1, Full-length (FL)-PRMT5-MEP50 enzyme complex (Homo sapiens, UniProt O14744).
T1 construct: Full-length (FL)-PRMT5-MEP50 enzyme complex (recombinant proteins from baculovirus-transfected Sf21 cells: FL-PRMT5; MW=73837 kDa and FL-MEP50; MW=38614); made in house; host or cells: baculovirus-transfected Sf21 cells
The experiment is described as follows: PRMT5-MEP50 Enzyme Methylation Assay (Version A). In kind it is biochemical. In short, it runs like this: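 Compound was pre-incubated with enzyme for 60 min, then reacted 150 min at 37° C. at final 1.0 nM PRMT5-MEP50, 15 μM SAM and 75 nM biotinylated H4R3(Me1) peptide, in 50 mM Bicine pH 8.0 with 1% DMSO. SAMDI mass-spectrometric readout of Me1→Me2 conversion. EC50 from 4- or 7-parameter regression.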

In experiment [2] the test system is symmetric dimethylation of arginine (SDMA) of PRMT5 substrates in MCF-7 cells. Put plainly: PRMT5 Cell Target Engagement (TE) Assay. In kind it is cell-based. Conditions: 3 days treatment, SDMA high content imaging. Put shortly:
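Readout is single-cell nuclear symmetric-dimethylarginine immunofluorescence (Alexa488), normalized to DMSO-treated cells. Compounds were applied to MCF-7 cells for 3 days at 37 °C, top concentration 10000 nM in 1:3 steps over ten points; curves fitted with 4-parameter robust fit.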

[3] abbreviates: second value of 7 parameter biphasic fit, read-out: Enzyme Methylation Assay Version A (EC50 2).
Setting [4] is: single EC50 = 4 parameter single site sigmoidal fit, EC50 1 = first value of 7 parameter biphasic fit, read-out: Enzyme Methylation Assay Version A (EC50 or EC50 1).

Molecules are shown by their SMILES. Like-named read-outs stand apart in the source and are kept apart here.

T1 sequence (O14744 whole entry): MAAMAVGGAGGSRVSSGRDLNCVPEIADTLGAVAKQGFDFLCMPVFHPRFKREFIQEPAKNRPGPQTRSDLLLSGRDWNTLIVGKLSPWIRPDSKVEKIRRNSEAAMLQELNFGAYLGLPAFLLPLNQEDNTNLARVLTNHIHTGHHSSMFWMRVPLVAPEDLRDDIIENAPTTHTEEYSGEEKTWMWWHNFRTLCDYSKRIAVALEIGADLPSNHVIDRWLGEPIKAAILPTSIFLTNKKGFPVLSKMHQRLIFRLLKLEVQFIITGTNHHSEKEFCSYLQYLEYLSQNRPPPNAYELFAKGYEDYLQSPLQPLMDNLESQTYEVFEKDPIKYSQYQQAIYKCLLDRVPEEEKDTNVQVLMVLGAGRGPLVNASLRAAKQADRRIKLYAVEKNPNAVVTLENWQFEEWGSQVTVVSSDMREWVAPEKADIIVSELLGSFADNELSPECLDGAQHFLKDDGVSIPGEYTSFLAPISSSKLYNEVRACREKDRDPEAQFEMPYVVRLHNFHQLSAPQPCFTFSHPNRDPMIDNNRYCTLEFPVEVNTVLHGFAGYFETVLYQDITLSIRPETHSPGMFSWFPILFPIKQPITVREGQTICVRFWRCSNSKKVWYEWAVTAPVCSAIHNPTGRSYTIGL
T1 sequence (Q9BQA1 whole entry partner): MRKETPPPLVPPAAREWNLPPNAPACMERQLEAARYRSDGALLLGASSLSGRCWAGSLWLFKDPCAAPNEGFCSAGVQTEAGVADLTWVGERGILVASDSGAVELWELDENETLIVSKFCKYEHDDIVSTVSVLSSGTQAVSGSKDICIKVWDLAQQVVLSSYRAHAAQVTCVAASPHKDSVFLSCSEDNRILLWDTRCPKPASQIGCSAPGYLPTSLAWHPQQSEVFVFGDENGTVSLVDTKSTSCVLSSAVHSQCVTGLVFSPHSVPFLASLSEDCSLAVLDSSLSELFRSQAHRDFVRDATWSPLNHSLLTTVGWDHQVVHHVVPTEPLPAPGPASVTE

On to `O=C(c1cn2cc(C3CC3(F)F)cnc2n1)N1CC[C@]2(Cc3ccccc3CN2)[C@H](O)C1` (single isomer, unassigned) [Example 75], for which the EC50 in experiment [1] (setting [3]) was 112 nM; in experiment [1] (setting [4]), 1.66 nM; in experiment [2] (Homo sapiens, MCF7, 72 h), 27.5 nM.
For `COCC1CC(C)Cn2cc(C(=O)N3CC[C@]4(Cc5ccccc5CN4)[C@H](O)C3)nc21` (single isomer, unassigned) [Example 157], the results for the EC50 in experiment [1] (setting [3]), in experiment [1] (setting [4]) and in experiment [2] were 6460 nM, 8.94 nM and 275 nM, respectively.
Take `O=C(c1cn2cc(C(F)(F)F)cnc2n1)N1CC[C@]2(Cc3ccccc3CN2)[C@H](O)C1` [Example 169, [(3R,3′R)-3′-hydroxy-1,4-dihydro-1′H,2H-spiro[isoquinoline-3,4′-piperidin]-1′-yl][6-(trifluoromethyl)imidazo[1,2-a]pyrimidin-2-yl]methanone]: the EC50 was 427 nM in experiment [1] (setting [3]); 1.51 nM in experiment [1] (setting [4]); 89 nM in experiment [2] (Homo sapiens, MCF7, 72 h).
In the case of `O=C(c1cn2cccc(F)c2n1)N1CC[C@]2(Cc3ccccc3CN2)[C@H](O)C1` [Example 202, (8-fluoroimidazo[1,2-a]pyridin-2-yl)[(3R,3′R)-3′-hydroxy-1,4-dihydro-1′H,2H-spiro[isoquinoline-3,4′-piperidin]-1′-yl]methanone], the EC50 in experiment [1] (setting [3]) came out at 16200 nM; in experiment [1] (setting [4]), 26.3 nM; in experiment [2] (Homo sapiens, MCF7, 72 h), 795 nM.
For `CNc1nc(C)ccc1C(=O)N1CC[C@]2(Cc3ccccc3CN2)[C@H](O)C1` [Example 198, [(3R,3′R)-3′-hydroxy-1,4-dihydro-1′H,2H-spiro[isoquinoline-3,4′-piperidin]-1′-yl][6-methyl-2-(methylamino)-3-pyridinyl]methanone], the concentration giving a half-maximal response (EC50) in experiment [1] (setting [3]) was 16000 nM; in experiment [1] (setting [4]), 19.3 nM; in experiment [2] (Homo sapiens, MCF7, 72 h) it was 1070 nM.
As to `Cc1nc(C(F)(F)F)cn2cc(C(=O)N3CC[C@]4(Cc5ccccc5CN4)[C@H](O)C3)nc12` [Example 72, [(3R,3′R)-3′-hydroxy-1,4-dihydro-1′H,2H-spiro[isoquinoline-3,4′-piperidin]-1′-yl][8-methyl-6-(trifluoromethyl)imidazo[1,2-a]pyrazin-2-yl]methanone], the EC50 is 335 nM in experiment [1] (setting [3]); 3.85 nM in experiment [1] (setting [4]); 78.5 nM in experiment [2] (Homo sapiens, MCF7, 72 h).
As to `CCOc1nc(C)ccc1C(=O)N1CC[C@]2(Cc3ccccc3CN2)[C@H](O)C1` [Example 200, (2-ethoxy-6-methyl-3-pyridinyl)[(3R,3′R)-3′-hydroxy-1,4-dihydro-1′H,2H-spiro[isoquinoline-3,4′-piperidin]-1′-yl]methanone], the EC50 in experiment [1] (setting [3]) turned out to be 3020 nM; in experiment [1] (setting [4]) it was 6.73 nM; in experiment [2] (Homo sapiens, MCF7, 72 h), 214 nM.
As to `COCc1cc(Br)cn2cc(C(=O)N3CC[C@]4(Cc5ccccc5CN4)[C@H](O)C3)nc12` [Example 28, (6-bromo-8-(methoxymethyl)imidazo[1,2-a]pyridin-2-yl)((3R,3’R)-3′-hydroxy-1,4-dihydro-2H-spiro[isoquinoline-3,4′-piperidin]-1′-yl)methanone], the concentration giving a half-maximal response (EC50) amounted to 0.816 nM in experiment [1] (setting [4]) and 2.75 nM in experiment [2] (Homo sapiens, MCF7, 72 h).
Take `Cc1ccc(C(=O)N2CC[C@]3(Cc4ccccc4CN3)[C@H](O)C2)c(Br)n1` [Example 197, (2-bromo-6-methyl-3-pyridinyl)[(3R,3′R)-3′-hydroxy-1,4-dihydro-1′H,2H-spiro[isoquinoline-3,4′-piperidin]-1′-yl]methanone]: the EC50 came out at 16000 nM in experiment [1] (setting [3]); 14.2 nM in experiment [1] (setting [4]); 1310 nM in experiment [2] (Homo sapiens, MCF7, 72 h).
For the molecule `O=C(c1cn2cc(Cl)ccc2n1)N1CC[C@]2(Cc3ccccc3CN2)[C@H](O)C1` [Example 37, (6-chloroimidazo[1,2-a]pyridin-2-yl)((3R,3’R)-3′-hydroxy-1,4-dihydro-2H-spiro[isoquinoline-3,4′-piperidin]-1′-yl)methanone], the 50% effective concentration (EC50) in experiment [1] (setting [3]) came out at 251 nM; in experiment [1] (setting [4]) it was 0.757 nM; in experiment [2] (Homo sapiens, MCF7, 72 h) it was 1.61 nM.
Regarding `O=C(c1cn2cc(Br)cc(CO)c2n1)N1CC[C@]2(Cc3ccccc3CN2)[C@H](O)C1` [Example 6, (6-bromo-8-(hydroxymethyl)imidazo[1,2-a]pyridin-2-yl)((3R,3’R)-3′-hydroxy-1,4-dihydro-2H-spiro[isoquinoline-3,4′-piperidin]-1′-yl)methanone], the concentration giving a half-maximal response (EC50) in experiment [1] (setting [3]) is 220 nM; in experiment [1] (setting [4]), 0.71 nM; in experiment [2] (Homo sapiens, MCF7, 72 h), 3.24 nM.
As for `O=C(c1nc2cc(Cl)ccn2n1)N1CC[C@]2(Cc3ccccc3CN2)[C@H](O)C1` [Example 18], the EC50 in experiment [1] (setting [3]) was found to be 57500 nM; in experiment [1] (setting [4]) it was 63.1 nM; in experiment [2] (Homo sapiens, MCF7, 72 h) it was 1010 nM.
The corresponding values for `O=C(c1cn2cc(O)ccc2n1)N1CC[C@]2(Cc3ccccc3CN2)[C@H](O)C1` [Example 39, ((3R,3’R)-3′-hydroxy-1,4-dihydro-2H-spiro[isoquinoline-3,4′-piperidin]-1′-yl)(6-hydroxyimidazo[1,2-a]pyridin-2-yl)methanone] are 29200 nM, 95.5 nM and 571 nM.
On to `O=C(c1cc2ncc(C(F)(F)F)cn2n1)N1CC[C@]2(Cc3ccccc3CN2)[C@H](O)C1` [Example 73, [(3R,3′R)-3′-hydroxy-1,4-dihydro-1′H,2H-spiro[isoquinoline-3,4′-piperidin]-1′-yl][6-(trifluoromethyl)pyrazolo[1,5-a]pyrimidin-2-yl]methanone], for which the half-maximal effective concentration (EC50) is 344 nM in experiment [1] (setting [3]); 4.43 nM in experiment [1] (setting [4]); 339 nM in experiment [2] (Homo sapiens, MCF7, 72 h).
For the molecule `Cc1ccc(C(=O)N2CC[C@]3(Cc4ccccc4CN3)[C@H](O)C2)c(-n2nccn2)n1` [Example 186, ((3R,3′R)-3′-hydroxy-1,4-dihydro-2H-spiro[isoquinoline-3,4′-piperidin]-1′-yl)(6-methyl-2-(2H-1,2,3-triazol-2-yl)pyridin-3-yl)methanone], the concentration for a half-maximal effect (EC50) came out at 501 nM in experiment [1] (setting [3]); 0.241 nM in experiment [1] (setting [4]); 71.2 nM in experiment [2] (Homo sapiens, MCF7, 72 h).
Regarding `COCc1cc(Cl)cn2cc(C(=O)N3CC[C@]4(Cc5ccccc5CN4)[C@H](O)C3)nc12` [Example 112, (6-chloro-8-(methoxymethyl)imidazo[1,2-a]pyridin-2-yl)((3R,3′R)-3′-hydroxy-1,4-dihydro-2H-spiro[isoquinoline-3,4′-piperidin]-1′-yl)methanone], the concentration for a half-maximal effect (EC50) in experiment [1] (setting [3]) was 271 nM; in experiment [1] (setting [4]) it was 0.703 nM; in experiment [2] (Homo sapiens, MCF7, 72 h), 6.75 nM.
With `CN1CCC(Oc2nc(Br)cn3cc(C(=O)N4CC[C@]5(Cc6ccccc6CN5)[C@H](O)C4)nc23)C1=O` (single isomer, unassigned) [Example 95, (R or S)-3-((6-bromo-2-((3R,3′R)-3′-hydroxy-1,4-dihydro-2H-spiro[isoquinoline-3,4′-piperidine]-1′-carbonyl)imidazo[1,2-a]pyrazin-8-yl)oxy)-1-methylpyrrolidin-2-one], the concentration giving a half-maximal response (EC50) in experiment [1] (setting [3]) is 468 nM; in experiment [1] (setting [4]) it was 1.01 nM; in experiment [2], 28.7 nM.
In the case of `COC(C)(C)c1ccc2nc(C(=O)N3CC[C@]4(Cc5ccccc5CN4)[C@H](O)C3)cn2c1` (stereo in doubt) [Example 46, (3′-hydroxy-2,4-dihydro-1H-spiro[isoquinoline-3,4′-piperidin]-1′-yl)(6-(2-methoxypropan-2-yl)imidazo[1,2-a]pyridin-2-yl)methanone], the 50% effective concentration (EC50) in experiment [1] (setting [3]) was 138 nM; in experiment [1] (setting [4]), 0.498 nM; in experiment [2] (Homo sapiens, MCF7, 72 h), 27.1 nM.
For `O=C(c1cn2cc(Br)cc(I)c2n1)N1CC[C@]2(Cc3ccccc3CN2)[C@H](O)C1` [Example 7], the concentration giving a half-maximal response (EC50) was determined as 52.5 nM in experiment [1] (setting [3]); 0.639 nM in experiment [1] (setting [4]); 0.545 nM in experiment [2] (Homo sapiens, MCF7, 72 h).

Usually EC50 stands for the concentration that produces a half-maximal response.
